Data set [1] deals with Simian immunodeficiency virus. Briefly: Antiviral activity against Simian immunodeficiency virus infected CEM174 cells assessed as inhibition of virus-induced syncytium after 5 days by microscopic analysis. The data set is classed as functional, organism-based. Particulars: CEM174, 120 h; call rule not given here.
In data set [2] the target is Structural capsid protein (Human immunodeficiency virus 1) (UniProt Q76129). Briefly: Inhibition of Human immunodeficiency virus 1 capsid protein expressed in Escherichia coli BL21(DE3) assessed as capsid assembly rate measured every 5 secs by spectrofluorometric analysis (reference value: 51.88 x 10^-5 OD/s).
Structural capsid protein (Human immunodeficiency virus 1), sequence (Q76129 as listed by the source): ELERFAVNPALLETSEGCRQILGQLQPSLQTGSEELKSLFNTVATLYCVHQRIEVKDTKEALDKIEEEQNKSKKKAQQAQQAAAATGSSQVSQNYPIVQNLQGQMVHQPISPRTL
A short description of data set [3]: Toxicity index, ratio of TC50 for human CEM174 cells to EC50 for Simian immunodeficiency virus. The data set is classed as cell-based. Particulars: read-out: TI.
A short description of data set [4]: Cytotoxicity against Homo sapiens (human) CEM174 by MTT assay. Particulars: CEM174 cells, read-out: TC50 (the source's name). (In general: Tetrazolium dyes change colour on reduction, which living cells bring about.)
Data set [5] concerns the target T1, Peptidyl-prolyl cis-trans isomerase A (Homo sapiens, UniProt P62937). In words: Inhibition of Homo sapiens (human) cyclophilin A PPIase activity expressed in Escherichia coli BL21(DE3) using Suc-AAPF-pNA as substrate measured after 6 secs for 20 secs by spectrophotometric analysis.
The target of data set [6] is T1, Peptidyl-prolyl cis-trans isomerase A. Briefly: Binding affinity to Homo sapiens (human) cyclophilin A expressed in Escherichia coli BL21(DE3) by fluorescence titration assay.

The structures appear in SMILES notation.

What is called EC50 is the concentration that produces a half-maximal response. As a reminder, the IC50 is the point on the concentration scale where inhibition reaches its midpoint. The Kd is a measure of binding affinity in units of concentration.

T1 sequence (P62937 whole entry): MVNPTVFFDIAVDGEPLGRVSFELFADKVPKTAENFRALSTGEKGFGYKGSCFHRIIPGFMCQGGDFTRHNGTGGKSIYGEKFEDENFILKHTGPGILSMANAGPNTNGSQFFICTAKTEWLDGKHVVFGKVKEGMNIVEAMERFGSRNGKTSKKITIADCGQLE

As for `CCN(CC)c1nc(C)c([N+](=O)[O-])c(NC(=S)Nc2cccc(Cl)c2)n1`, in data set [1], the 50% effective concentration (EC50) came to 3.7 µM. The Activity in data set [2] turned out to be 21.2 ×10⁻⁵ OD/s. In data set [3], the selectivity ratio is 8.6. Further, the CC50 in data set [4] stood at 31.5 µM.
In the case of `Cc1cc(NS(=O)(=O)c2ccc(NC(=S)Nc3cccc(Br)c3)cc2)no1`, the EC50 in data set [1] was found to be 0.9 µM. Also, the Activity in data set [2] was 15.8 ×10⁻⁵ OD/s. In addition, in data set [3], the selectivity ratio was 66.
The corresponding values for `COc1ccc(NC(=S)Nc2ccc(S(=O)(=O)Nc3cc(C)on3)cc2)cc1` are 1.5 µM, 20.2 ×10⁻⁵ OD/s and 27.
The corresponding values for `Cc1cc(NS(=O)(=O)c2ccc(NC(=S)Nc3cccc(Cl)c3)cc2)no1` are 1 µM, 7.97 ×10⁻⁵ OD/s and 92.
For `Cc1cc(NS(=O)(=O)c2ccc(NC(=S)Nc3ccc(C)c(Cl)c3)cc2)no1`, in that order: 0.6 µM, 18.4 ×10⁻⁵ OD/s and 127.
Turning to `O=C1OCc2ccc(NC(=S)Nc3ccccc3)cc21`, the EC50 in data set [1] worked out at 1.3 µM. In data set [2], the Activity came out at 25.5 ×10⁻⁵ OD/s. For the same compound, the selectivity ratio in data set [3] was 28. Further, in data set [4], the CC50 worked out at 36.3 µM.
On to `CCN(CC)c1nc(C)c([N+](=O)[O-])c(NC(=S)Nc2ccc(C)c(Cl)c2)n1`, for which, in data set [1], the EC50 is 6.3 µM. The selectivity ratio in data set [3] was > 14.1. For the same compound, the CC50 in data set [4] was > 100 µM. In data set [5] (read-out: IC50), the IC50 is 0.74 µM. In addition, in data set [6], binding was characterised by a dissociation constant (Kd) of 73.3 µM.
On to `O=C1OCc2ccc(NC(=S)Nc3cccc(F)c3)cc21`, for which the EC50 in data set [1] is 6.3 µM. Also, the selectivity ratio in data set [3] came to 10. Moreover, the IC50 in data set [5] (read-out: IC50) was 0.74 µM.
In the case of `Cc1ccc(NS(=O)(=O)c2ccc(NC(=S)Nc3ccc(Cl)cc3)cc2)cc1`, the EC50 in data set [1] was determined as 4.1 µM. In addition, the Activity in data set [2] was 13.3 ×10⁻⁵ OD/s. For the same compound, the selectivity ratio in data set [3] was determined as 19. Moreover, the CC50 in data set [4] stood at 77.5 µM.
`CCN(CC)c1nc(C)c([N+](=O)[O-])c(NC(=S)Nc2cccc(F)c2)n1`: the EC50 in data set [1] was determined as 3.8 µM. Moreover, the Activity in data set [2] was 20.7 ×10⁻⁵ OD/s. The selectivity ratio in data set [3] is > 26.3. For the same compound, in data set [4], the CC50 was > 100 µM.
On to `Cc1cc(NS(=O)(=O)c2ccc(NC(=S)Nc3cccc(F)c3)cc2)no1`, for which the EC50 in data set [1] turned out to be 11.6 µM. In addition, in data set [2], the Activity turned out to be 38.5 ×10⁻⁵ OD/s. For the same compound, the selectivity ratio in data set [3] came out at 8. Also, the IC50 in data set [5] (read-out: IC50) came out at 0.88 µM.
`Cc1cc(NS(=O)(=O)c2ccc(NC(=S)Nc3ccc(Cl)cc3)cc2)no1`: the EC50 in data set [1] worked out at 4.1 µM. Also, in data set [2], the Activity was found to be 14.7 ×10⁻⁵ OD/s. Moreover, the selectivity ratio in data set [3] was found to be 9.
`CCN(CC)c1nc(C)c([N+](=O)[O-])c(NC(=S)Nc2cccc(Br)c2)n1`: the concentration giving a half-maximal response (EC50) in data set [1] turned out to be 7.4 µM. Also, in data set [3], the selectivity ratio came to 3.5. Also, the CC50 in data set [4] was 26.2 µM. The IC50 in data set [5] (read-out: IC50) was found to be 0.81 µM. The compound further came in with a Kd in data set [6] of 79.3 µM.
Turning to `Cc1cccc(NC(=S)Nc2ccc3c(c2)C(=O)OC3)c1`, the EC50 in data set [1] came to 11.6 µM. The Activity in data set [2] was 32.7 ×10⁻⁵ OD/s. The selectivity ratio in data set [3] stood at 1. The IC50 entry in data set [5] is given as “Not Active”.
On to `COc1ccc(NC(=S)Nc2ccc3c(c2)C(=O)OC3)cc1`, for which the EC50 in data set [1] was found to be 9.7 µM. Moreover, the selectivity ratio in data set [3] was found to be 20. Also, the IC50 in data set [5] (read-out: IC50) came to 0.92 µM.
For `O=S(=O)(Nc1nccs1)c1ccc(NC(=S)Nc2ccc(Cl)cc2)cc1`, in data set [1], the EC50 was found to be 0.7 µM. Also, in data set [3], the selectivity ratio stood at 3.
Take `Cc1cc(NS(=O)(=O)c2ccc(NC(=S)Nc3ccccc3C)cc2)no1`: the EC50 in data set [1] is 6.2 µM. For the same compound, in data set [3], the selectivity ratio turned out to be 8.
Take `CCN(CC)c1nc(C)c([N+](=O)[O-])c(NC(=S)Nc2ccc(Cl)cc2)n1`: in data set [1], the concentration for a half-maximal effect (EC50) is 12 µM. For the same compound, the Activity in data set [2] stood at 48.9 ×10⁻⁵ OD/s. Further, in data set [3], the selectivity ratio was > 8.33. In addition, the CC50 in data set [4] is > 100 µM.
Regarding `CCN(CC)c1nc(C)cc(NC(=S)Nc2cccc(Br)c2)n1`, the EC50 in data set [1] was found to be 5.5 µM. Moreover, in data set [3], the selectivity ratio is > 1.5. Moreover, the CC50 in data set [4] stood at 8.4 µM. For the same compound, the IC50 result in data set [5] is listed as “Not Active”. This compound also had a Kd in data set [6] of 200 µM.
For the compound `Cc1ccc(NC(=S)Nc2ccc3c(c2)C(=O)OC3)cc1Cl`, the EC50 in data set [1] was found to be 4.6 µM. The Activity in data set [2] was 9.9 ×10⁻⁵ OD/s. The selectivity ratio in data set [3] is 4.
With `Cc1ccc(NC(=O)NCCSCc2ccc(CN(C)C)o2)cc1Cl`, the Activity in data set [2] was found to be 26.5 ×10⁻⁵ OD/s.

These data come from ChEMBL document CHEMBL3046110, “Screening and evaluation of thiourea derivatives for their HIV capsid and human cyclophilin A inhibitory activity” (Med Chem Res, 2011).
